Laboratory results published in ChEMBL document CHEMBL1122542, “A 1H NMR study of the interactions and conformations of rationally designed brodimoprim analogues in complexes with Lactobacillus casei dihydrofolate reductase” (J Med Chem, 1984).

Assays:
Dihydrofolate reductase [1] = biological target: T1, Dihydrofolate reductase (Lactobacillus casei, UniProt P00381); assay: Inhibition constant of compound against Lactobacillus casei Dihydrofolate reductase; design: species or system Lacticaseibacillus casei
T1 sequence (P00381 whole entry): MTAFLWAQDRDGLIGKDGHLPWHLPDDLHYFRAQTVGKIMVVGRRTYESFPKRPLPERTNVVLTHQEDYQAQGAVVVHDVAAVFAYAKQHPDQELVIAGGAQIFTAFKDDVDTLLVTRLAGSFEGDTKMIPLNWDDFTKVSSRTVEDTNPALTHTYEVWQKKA

[2] = biological target: Dihydrofolate reductase (Lactobacillus casei) (UniProt P00381); conditions: Lacticaseibacillus casei
Dihydrofolate reductase (Lactobacillus casei), sequence (P00381 whole entry): as above
Description: Tested for pK value of histidine residue(His-28) of Dihydrofolate reductase from Lactobacillus casei

[3] = biological target: Dihydrofolate reductase (Lactobacillus casei) (UniProt P00381); assay: Tested for pK value of histidine residue(His-28) of dihydrofolate reductase from Lactobacillus casei; assay type: functional; conditions: Lacticaseibacillus casei
Dihydrofolate reductase [4] = biological target: T1, Dihydrofolate reductase; assay: Inhibition constant of compound against Lactobacillus casei dihydrofolate reductase; design: species or system Lacticaseibacillus casei

Row | SMILES | Ki (Dihydrofolate reductase [1]) | pK [2] | pK [3] | Ki (Dihydrofolate reductase [4])
1 | COc1cc(Cc2cnc(N)nc2N)cc(OCCCNCCC(=O)O)c1Br |  |  | 6.71 | 5.3 nM
2 | COc1cc(Cc2cnc(N)nc2N)cc(OC)c1Br [BRODIMOPRIM] |  |  | 6.8 | 11.3 nM
3 | COc1cc(Cc2cnc(N)nc2N)cc(OCCCCCCC(=O)O)c1Br | 0.6 nM | 6.8 |  | 
4 | COc1cc(Cc2cnc(N)nc2N)cc(OCCCC(CCC(=O)O)C(=O)O)c1Br (stereo unspecified) | < 0.01 nM | 7.8 |  | 

Results, then the molecule that gave them:

Row | Ki (Dihydrofolate reductase [1]) | pK [2] | pK [3] | Ki (Dihydrofolate reductase [4]) | SMILES
5 | 0.2 nM | 6.83 |  |  | COc1cc(Cc2cnc(N)nc2N)cc(OCCCCC(=O)O)c1Br
6 | 1.7 nM | 7.12 |  |  | COc1cc(Cc2cnc(N)nc2N)cc(OCCC(=O)NC(CCC(=O)O)C(=O)O)c1Br (stereo unspecified)
7 | 4.1 nM | 6.71 |  |  | COc1cc(Cc2cnc(N)nc2N)cc(OCCC(=O)NCC(=O)O)c1Br
8 | 0.4 nM |  |  |  | COc1cc(Cc2cnc(N)nc2N)cc(OCCCCCC(=O)O)c1Br
9 | 0.9 nM |  |  |  | COc1cc(Cc2cnc(N)nc2N)cc(OCCCC(=O)O)c1Br
